Molecules are shown by their SMILES. pIC50: −log10 of the molar value.

Sequence of GDP-bound KRAS protein (aa 1-169), containing both G12C and C118A amino acid substitutions (P01116 other isoform, or with tags, fused parts or gaps G12C/C118A): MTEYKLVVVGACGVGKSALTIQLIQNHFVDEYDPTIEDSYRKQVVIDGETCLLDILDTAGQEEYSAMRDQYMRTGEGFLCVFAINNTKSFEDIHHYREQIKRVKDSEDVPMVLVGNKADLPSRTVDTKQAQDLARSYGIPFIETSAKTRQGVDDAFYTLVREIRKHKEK

One test deals with Phosphorylation of ERK1/2 in MIA PaCa-2 cells. The test can be described thus: Phospho-ERK1/2 MSD Assay. The format is cell-based. Particulars: Homo sapiens, MIA PaCa-2, 4 h, read-out: pERK IC50 (4 h, MiaPaCa-2), 4 h compound treatment; MiaPaCa-2 cells.
One may read the pIC50 as −log10 of the IC50, conventionally taken in molar units. Turning to `C=CC(=O)N1CC(NC(=O)Cn2cc(C(=O)NCC(CC)Oc3cccc(Cl)c3)c3cc(Br)ccc32)C1` (centres unmarked) [Example 152], the pIC50 was 4.29.

Take `C=CC(=O)N1CC(NC(=O)Cn2cc(C(=O)N(C)CC(=O)Nc3ccc(Cl)c(C(F)(F)F)c3)c3cc(Br)ccc32)C1` [Example 158]: the negative logarithm of the IC50 (pIC50) was 4.27.

For the compound `C=CC(=O)N1CC(NC(=O)Cn2cc(C(=O)NCCc3ccc(Cl)cc3Cl)c3cc(Br)ccc32)C1` [Example 161], the pIC50 is 4.10.

As to `C=CC(=O)N1CC(NC(=O)Cn2cc(C(=O)NCCc3ccc(Cl)cc3Cl)c3cc(Br)cc(C)c32)C1` [Example 162], the pIC50 is 4.09.

With `C=CC(=O)N1CC(NC(=O)Cn2cc(C(=O)NCCC(=O)Nc3cccc4ccccc34)c3cc(Br)ccc32)C1` [Example 170], the negative logarithm of the IC50 (pIC50) was less than 4.00.

For `C=CC(=O)N1CC(NC(=O)Cn2cc(C(=O)NCCc3nc(C)c(C)s3)c3cc(Br)ccc32)C1` [Example 176], the negative-log IC50 (pIC50) was less than 4.00.

Take `C=CC(=O)N1CC(NC(=O)Cn2cc(C(=O)NCCC(=O)Nc3ccccc3CC)c3cc(Br)cc(C)c32)C1` [Example 177]: the pIC50 is less than 4.00.

For `C=CC(=O)N1CC(NC(=O)Cn2cc(C(=O)NCCc3ccc(Cl)cc3Cl)c3cc(Cl)cc(Cl)c32)C1` [Example 178], the negative logarithm of the IC50 (pIC50) was less than 4.00.

Staying with this test, now noted: Homo sapiens, MIA PaCa-2, read-out: pERK IC50 (4 h); 4 h compound treatment; MiaPaCa-2 cells.
In the case of `C=CC(=O)N1CC(NC(=O)Cn2cc(I)c3cc(Br)cc(C)c32)C1` [Example 153], the negative logarithm of the IC50 (pIC50) was 4.29.

With `C=CC(=O)N1CC(NC(=O)Cn2cc(Cl)c3cc(Br)ccc32)C1` [Example 154], the negative-log IC50 (pIC50) is 4.28.

As to `C=CC(=O)N1CC(NC(=O)Cn2c3c(c4cc(Br)ccc42)CCCC3)C1` [Example 160], the pIC50 was 4.23.

As to `C=CC(=O)N1CC(NC(=O)Cn2c(C(=O)NCc3ccccc3)cc3cc(Br)ccc32)C1` [Example 164], the negative logarithm of the IC50 (pIC50) is less than 4.00.

On to `C=CC(=O)N1CC(NC(=O)Cn2ccc3cc(Cl)cc(Cl)c32)C1` [Example 165], for which the pIC50 was less than 4.00.

For another test, the system named is Phosphorylation of ERK1/2 in A549 cells. The test can be described thus: Phospho-ERK1/2 MSD Assay (A549). Type of test: cell-based. Particulars: Homo sapiens, A549, 4 h, read-out: pERK IC50 (4 h, A549), 4 h compound treatment.
Consider `C=CC(=O)N1CC(NC(=O)Cn2cc(C(=O)NCC(CC)Oc3cccc(Cl)c3)c3cc(Br)ccc32)C1` (centres unmarked) [Example 152], for which the pIC50 was 4.16.

Turning to `C=CC(=O)N1CC(NC(=O)Cn2cc(C(=O)N(C)CC(=O)Nc3ccc(Cl)c(C(F)(F)F)c3)c3cc(Br)ccc32)C1` [Example 158], the pIC50 is less than 4.00.

Regarding `C=CC(=O)N1CC(NC(=O)Cn2cc(C(=O)NCCc3ccc(Cl)cc3Cl)c3cc(Br)ccc32)C1` [Example 161], the pIC50 is less than 4.00.

On to `C=CC(=O)N1CC(NC(=O)Cn2cc(C(=O)NCCc3ccc(Cl)cc3Cl)c3cc(Br)cc(C)c32)C1` [Example 162], for which the negative-log IC50 (pIC50) is less than 4.00.

As to `C=CC(=O)N1CC(NC(=O)Cn2cc(C(=O)NCCC(=O)Nc3cccc4ccccc34)c3cc(Br)ccc32)C1` [Example 170], the negative logarithm of the IC50 (pIC50) is less than 4.00.

For the compound `C=CC(=O)N1CC(NC(=O)Cn2cc(C(=O)NCCc3nc(C)c(C)s3)c3cc(Br)ccc32)C1` [Example 176], the pIC50 was less than 4.00.

`C=CC(=O)N1CC(NC(=O)Cn2cc(C(=O)NCCC(=O)Nc3ccccc3CC)c3cc(Br)cc(C)c32)C1` [Example 177]: the pIC50 is less than 4.00.

On to `C=CC(=O)N1CC(NC(=O)Cn2cc(C(=O)NCCc3ccc(Cl)cc3Cl)c3cc(Cl)cc(Cl)c32)C1` [Example 178], for which the pIC50 was less than 4.00.

Still in this test, the particulars now being: Homo sapiens, read-out: pERK IC50 (4 h), 4 h compound treatment.
As to `C=CC(=O)N1CC(NC(=O)Cn2cc(I)c3cc(Br)cc(C)c32)C1` [Example 153], the negative-log IC50 (pIC50) is less than 4.00.

As to `C=CC(=O)N1CC(NC(=O)Cn2cc(Cl)c3cc(Br)ccc32)C1` [Example 154], the pIC50 is less than 4.00.

For the compound `C=CC(=O)N1CC(NC(=O)Cn2c3c(c4cc(Br)ccc42)CCCC3)C1` [Example 160], the negative-log IC50 (pIC50) is less than 4.00.

With `C=CC(=O)N1CC(NC(=O)Cn2c(C(=O)NCc3ccccc3)cc3cc(Br)ccc32)C1` [Example 164], the negative logarithm of the IC50 (pIC50) was less than 4.00.

Take `C=CC(=O)N1CC(NC(=O)Cn2ccc3cc(Cl)cc(Cl)c32)C1` [Example 165]: the pIC50 was less than 4.00.

For the next test, the target named is GDP-bound KRAS protein (aa 1-169), containing both G12C and C118A amino acid substitutions (Homo sapiens (Human), UniProt P01116, C118A/G12C). The test can be described thus: Coupled Nucleotide Exchange Assay. The format is biochemical. Particulars: read-out: Coupled Exchange IC50 (5 min); 5 min compound pre-incubation. The protocol:
For compounds in Table 9, the following assay conditions were employed:
Coupled Nucleotide Exchange Assay:
The assay plates were then read on a PerkinElmer EnVision Multilabel Reader, using AlphaScreen® technology, and data were analyzed using a 4-parameter logistic model to calculate IC50 values.
Turning to `C=CC(=O)N1CC(NC(=O)Cn2cc(Cl)c3cc(Br)ccc32)C1` [Example 154], the negative-log IC50 (pIC50) was 4.25.

The same test, now with this note: read-out: Coupled Exchange IC50 (2 h); 2 h compound pre-incubation.
With `C=CC(=O)N1CC(NC(=O)Cn2cc(C(=O)NCC(CC)Oc3cccc(Cl)c3)c3cc(Br)ccc32)C1` (centres unmarked) [Example 152], the negative logarithm of the IC50 (pIC50) was 5.74.

Take `C=CC(=O)N1CC(NC(=O)Cn2cc(I)c3cc(Br)cc(C)c32)C1` [Example 153]: the pIC50 is 5.80.

On to `C=CC(=O)N1CC(NC(=O)Cn2cc(Cl)c3cc(Br)ccc32)C1` [Example 154], for which the negative-log IC50 (pIC50) is 5.29.

As to `C=CC(=O)N1CC(NC(=O)Cn2cc(C(=O)N(C)CC(=O)Nc3ccc(Cl)c(C(F)(F)F)c3)c3cc(Br)ccc32)C1` [Example 158], the negative logarithm of the IC50 (pIC50) was 6.36.

As for `C=CC(=O)N1CC(NC(=O)Cn2c3c(c4cc(Br)ccc42)CCCC3)C1` [Example 160], the negative-log IC50 (pIC50) is 5.31.

Take `C=CC(=O)N1CC(NC(=O)Cn2cc(C(=O)NCCc3ccc(Cl)cc3Cl)c3cc(Br)ccc32)C1` [Example 161]: the pIC50 was 6.00.

Regarding `C=CC(=O)N1CC(NC(=O)Cn2cc(C(=O)NCCc3ccc(Cl)cc3Cl)c3cc(Br)cc(C)c32)C1` [Example 162], the pIC50 is 6.12.

As to `C=CC(=O)N1CC(NC(=O)Cn2c(C(=O)NCc3ccccc3)cc3cc(Br)ccc32)C1` [Example 164], the negative-log IC50 (pIC50) was 4.97.

Take `C=CC(=O)N1CC(NC(=O)Cn2ccc3cc(Cl)cc(Cl)c32)C1` [Example 165]: the negative logarithm of the IC50 (pIC50) was 4.88.

As to `C=CC(=O)N1CC(NC(=O)Cn2cc(C(=O)NCCC(=O)Nc3cccc4ccccc34)c3cc(Br)ccc32)C1` [Example 170], the pIC50 is 5.52.

With `C=CC(=O)N1CC(NC(=O)Cn2cc(C(=O)NCCc3nc(C)c(C)s3)c3cc(Br)ccc32)C1` [Example 176], the negative-log IC50 (pIC50) was 5.55.

With `C=CC(=O)N1CC(NC(=O)Cn2cc(C(=O)NCCC(=O)Nc3ccccc3CC)c3cc(Br)cc(C)c32)C1` [Example 177], the negative logarithm of the IC50 (pIC50) is 6.37.

For `C=CC(=O)N1CC(NC(=O)Cn2cc(C(=O)NCCc3ccc(Cl)cc3Cl)c3cc(Cl)cc(Cl)c32)C1` [Example 178], the pIC50 is 6.20.

Staying with this test, now noted: read-out: Coupled Exchange IC50 (20 h); 20 h compound pre-incubation.
In the case of `C=CC(=O)N1CC(NC(=O)Cn2cc(C(=O)NCC(CC)Oc3cccc(Cl)c3)c3cc(Br)ccc32)C1` (centres unmarked) [Example 152], the negative-log IC50 (pIC50) was 6.33.

For `C=CC(=O)N1CC(NC(=O)Cn2cc(I)c3cc(Br)cc(C)c32)C1` [Example 153], the pIC50 was 6.59.

Take `C=CC(=O)N1CC(NC(=O)Cn2cc(Cl)c3cc(Br)ccc32)C1` [Example 154]: the pIC50 is 6.07.

With `C=CC(=O)N1CC(NC(=O)Cn2cc(C(=O)N(C)CC(=O)Nc3ccc(Cl)c(C(F)(F)F)c3)c3cc(Br)ccc32)C1` [Example 158], the negative-log IC50 (pIC50) was 6.80.

`C=CC(=O)N1CC(NC(=O)Cn2c3c(c4cc(Br)ccc42)CCCC3)C1` [Example 160]: the pIC50 was 5.97.

As to `C=CC(=O)N1CC(NC(=O)Cn2cc(C(=O)NCCc3ccc(Cl)cc3Cl)c3cc(Br)ccc32)C1` [Example 161], the negative-log IC50 (pIC50) was 6.64.

With `C=CC(=O)N1CC(NC(=O)Cn2cc(C(=O)NCCc3ccc(Cl)cc3Cl)c3cc(Br)cc(C)c32)C1` [Example 162], the pIC50 is 6.59.

For the compound `C=CC(=O)N1CC(NC(=O)Cn2c(C(=O)NCc3ccccc3)cc3cc(Br)ccc32)C1` [Example 164], the pIC50 is 5.95.

Regarding `C=CC(=O)N1CC(NC(=O)Cn2ccc3cc(Cl)cc(Cl)c32)C1` [Example 165], the pIC50 is 5.58.

For the compound `C=CC(=O)N1CC(NC(=O)Cn2cc(C(=O)NCCC(=O)Nc3cccc4ccccc34)c3cc(Br)ccc32)C1` [Example 170], the pIC50 was 6.19.

With `C=CC(=O)N1CC(NC(=O)Cn2cc(C(=O)NCCc3nc(C)c(C)s3)c3cc(Br)ccc32)C1` [Example 176], the negative-log IC50 (pIC50) is 6.22.

On to `C=CC(=O)N1CC(NC(=O)Cn2cc(C(=O)NCCC(=O)Nc3ccccc3CC)c3cc(Br)cc(C)c32)C1` [Example 177], for which the pIC50 was 6.77.

Consider `C=CC(=O)N1CC(NC(=O)Cn2cc(C(=O)NCCc3ccc(Cl)cc3Cl)c3cc(Cl)cc(Cl)c32)C1` [Example 178], for which the negative-log IC50 (pIC50) was 6.66.

These data come from patent publication US11053226B2, “KRAS G12C inhibitors and methods of using the same” (Amgen Inc., priority 2018, dated 2021).
